# In US9863966B2 (priority 2012, dated 2018):
# Assays:
# [1] = test system: monoclonal antibody from hybridoma cell line NM4.3F5.C10.B7.B2.B2.C4; format: binding, sheep
# [2] = cited from earlier work
# [3] = cited from earlier work; for plasma elimination half-life: Demerol Prescribing Information datasheet; for half-life: Latta et al., 2002
# [4] = cited from earlier work; remark: listed apart in the source
SMILES,% Cross Reactivity [1] [%],other results
CC(C)=CCN1CCC2(C)c3cc(O)ccc3CC1C2C (stereo not shown) [Pentazocine],<1,–
COc1ccc2c3c1O[C@H]1[C@@H](O)C=C[C@H]4[C@@H](C2)N(C)CC[C@@]341 [Codeine],<1,–
CCCC(C)(COC(N)=O)COC(N)=O [Meprobamate],<1,–
NC1(c2ccccc2Cl)CCCCC1=O (stereo not shown) [Norketamine],<1,–
COc1ccc2c3c1O[C@H]1C(=O)CC[C@H]4[C@@H](C2)N(C)CC[C@]314 [Hydrocodone],<1,–
CCC(=O)C(CC(C)N(C)C)(c1ccccc1)c1ccccc1 (stereo not shown) [Methadone],<1,–
CN1CC[C@]23c4c5ccc(O)c4O[C@H]2C(=O)CC[C@@]3(O)[C@H]1C5 [Oxymorphone],<1,–
Cc1ccc(-c2nc3ccc(C)cn3c2CC(=O)N(C)C)cc1 [Zolpidem],<1,–
COc1ccc2c3c1O[C@H]1C(=O)CC[C@@]4(O)[C@@H](C2)N(C)CC[C@]314 [Oxycodone],<1,–
CCO[C@@H]1O[C@H](C(=O)O)[C@@H](O)[C@H](O)[C@H]1O [Ethyl-Glucuronide],<1,–
CCN(C(C)=O)c1cccc(-c2ccnc3c(C#N)cnn23)c1 [Zaleplon],<1,–
O=C(O)C(O)C(O)C(=O)O.Oc1ccc2c(c1)[C@@]13CCCC[C@@]1(O)[C@@H](C2)N(CC1CCC1)CC3 [Butorphanol Tartrate],<1,–
CCOC(=O)C1(c2ccccc2)CCNCC1 [Normeperidine],100,IC50 (antibody sensitivity) [1]: about 0.5 ng/ml; analgesic effectiveness relative to parent compound ([2]; relative to meperidine): half as effective; plasma elimination half-life [3]: 15 to 20 h; half-life [3]: 14 to 48 h; convulsant activity relative to parent compound ([4]; relative to meperidine): more active as a convulsant; neurotoxic potential relative to parent compound ([4]; relative to meperidine): up to 3 times
O=C(O)[C@H]1O[C@@H](OCC(Cl)(Cl)Cl)[C@H](O)[C@@H](O)[C@@H]1O [Urochloralic Acid],<1,–
CCOC(=O)C1(c2ccccc2)CCN(C)CC1 [Meperidine],102.5,"potency compared to morphine (times less potent) ([2]; Latta et al., 2002): 7-10 times; eliminated in the form of normeperidine ([3]; Baselt, 2008): around 17%; excreted unchanged in urine ([3]; Baselt, 2008): About 7%; plasma elimination half-life [3]: 3 to 4 h; half-life [3]: 3 to 6 h; fraction reaching systematic circulation (first-pass metabolism) ([3]; in vivo): around 50%; time of peak plasma concentrations after administration ([3]; intramuscular injection): 1 to 2 h; administered dose excreted in urine ([3]; within 24 hours, Moffat et al., 2003): Approximately 70%; daily dose reported to cause grand mal seizures ([4]; as low as, Latta et al., 2002): ≥ 260 mg; dose reported as causing muscle twitches or tremors ([4]; as low as, Latta et al., 2002): ≥ 46 mg per day"
CN1CCN(C(=O)OC2c3nccnc3C(=O)N2c2ccc(Cl)cn2)CC1 (stereo not shown) [Zopiclone],<1,–
CN1CC[C@]23CCCC[C@H]2[C@H]1Cc1ccc(O)cc13 [Levorphanol],<1,–
Oc1ccc2c3c1O[C@H]1[C@@H](O)CC[C@@]4(O)[C@@H](C2)N(CC2CCC2)CC[C@]314 [Nalbuphine],<1,–
